Source: ChEMBL document CHEMBL4800728, “Data for DCP probe JNJ-54119936” (2021)

Columns and labels:
[1] = biological target: cAMP-dependent protein kinase catalytic subunit alpha (Homo sapiens) (UniProt P17612); test: PKA Invitrogen kinase panel; settings: Compound concentration 10.0 uM
[2] = biological target: Neuromedin-K receptor (Homo sapiens) (UniProt P29371); test: NK3 (h) CEREP screen
[3] = biological target: Sigma non-opioid intracellular receptor 1 (Homo sapiens, UniProt Q99720); settings: Compound concentration 10.0 uM
[4] = biological target: Endothelin-1 receptor (Homo sapiens) (UniProt P25101); test: ETA (h) CEREP screen; settings: Compound concentration 10.0 uM
[5] = biological target: 5-hydroxytryptamine receptor 2C (Homo sapiens) (UniProt P28335); settings: Compound concentration 10.0 uM
[6] = biological target: Serine/threonine-protein kinase PAK 4 (Homo sapiens) (UniProt O96013); test: PAK4 Invitrogen kinase panel; settings: Compound concentration 10.0 uM
[7] = biological target: Oxysterols receptor LXR-alpha (Homo sapiens) (UniProt Q13133); test: LXRalpha In-house nuclear receptor screen; settings: Compound concentration 3.0 uM
[8] = biological target: Tyrosine-protein kinase JAK2 (Homo sapiens) (UniProt O60674); test: JAK2 Invitrogen kinase panel; settings: Compound concentration 10.0 uM
[9] = biological target: Sodium-dependent serotonin transporter (Homo sapiens) (UniProt P31645); test: 5-HT transporter (h) CEREP screen; settings: Compound concentration 10.0 uM
Chain of Sodium-dependent serotonin transporter (Homo sapiens) (P31645 whole entry, looked up): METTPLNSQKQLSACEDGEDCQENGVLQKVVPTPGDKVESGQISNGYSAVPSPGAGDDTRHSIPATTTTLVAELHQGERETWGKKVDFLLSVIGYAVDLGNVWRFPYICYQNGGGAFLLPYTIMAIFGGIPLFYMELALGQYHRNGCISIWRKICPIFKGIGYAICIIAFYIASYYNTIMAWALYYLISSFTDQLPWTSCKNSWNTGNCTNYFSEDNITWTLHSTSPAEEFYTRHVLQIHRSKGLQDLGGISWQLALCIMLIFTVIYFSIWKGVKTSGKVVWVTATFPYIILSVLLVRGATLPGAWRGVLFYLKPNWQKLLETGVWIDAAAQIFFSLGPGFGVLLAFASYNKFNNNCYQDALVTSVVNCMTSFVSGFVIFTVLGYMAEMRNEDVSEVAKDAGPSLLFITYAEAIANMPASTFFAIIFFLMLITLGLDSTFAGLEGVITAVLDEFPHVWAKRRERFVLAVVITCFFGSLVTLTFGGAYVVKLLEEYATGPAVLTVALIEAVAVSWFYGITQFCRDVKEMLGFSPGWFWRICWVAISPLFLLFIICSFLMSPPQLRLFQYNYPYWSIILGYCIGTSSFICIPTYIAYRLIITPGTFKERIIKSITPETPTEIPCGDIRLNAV

[10] = biological target: Glycogen synthase kinase-3 beta (Homo sapiens) (UniProt P49841); test: GSK3beta Invitrogen kinase panel; settings: Compound concentration 10.0 uM
[11] = biological target: Dual specificity protein kinase CLK2 (Homo sapiens) (UniProt P49760); test: CLK2 Invitrogen kinase panel; settings: Compound concentration 10.0 uM
Chain of Dual specificity protein kinase CLK2 (Homo sapiens) (P49760 whole entry, looked up): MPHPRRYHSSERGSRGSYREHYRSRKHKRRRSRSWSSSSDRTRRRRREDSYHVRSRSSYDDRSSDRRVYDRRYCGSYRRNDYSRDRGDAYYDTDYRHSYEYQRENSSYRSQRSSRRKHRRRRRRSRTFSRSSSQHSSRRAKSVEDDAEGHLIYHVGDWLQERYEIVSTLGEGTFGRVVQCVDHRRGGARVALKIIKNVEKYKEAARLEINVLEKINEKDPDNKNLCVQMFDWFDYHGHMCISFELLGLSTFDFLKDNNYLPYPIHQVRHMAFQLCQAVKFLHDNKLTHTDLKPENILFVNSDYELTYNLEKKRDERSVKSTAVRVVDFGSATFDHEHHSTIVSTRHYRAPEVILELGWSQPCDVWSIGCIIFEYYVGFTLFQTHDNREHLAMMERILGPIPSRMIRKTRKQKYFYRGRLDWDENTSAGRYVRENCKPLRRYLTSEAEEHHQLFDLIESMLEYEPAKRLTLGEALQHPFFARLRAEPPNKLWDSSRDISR

[12] = biological target: Melatonin receptor type 1A (Homo sapiens) (UniProt P48039); test: MT1 (ML1A) (h) CEREP screen; settings: Compound concentration 10.0 uM
[13] = biological target: Inhibitor of nuclear factor kappa-B kinase subunit beta (Homo sapiens) (UniProt O14920); test: IKKbeta Invitrogen kinase panel; settings: Compound concentration 10.0 uM
[14] = biological target: D(2) dopamine receptor (Homo sapiens) (UniProt P14416); settings: Compound concentration 10.0 uM
Chain of D(2) dopamine receptor (Homo sapiens) (P14416 whole entry): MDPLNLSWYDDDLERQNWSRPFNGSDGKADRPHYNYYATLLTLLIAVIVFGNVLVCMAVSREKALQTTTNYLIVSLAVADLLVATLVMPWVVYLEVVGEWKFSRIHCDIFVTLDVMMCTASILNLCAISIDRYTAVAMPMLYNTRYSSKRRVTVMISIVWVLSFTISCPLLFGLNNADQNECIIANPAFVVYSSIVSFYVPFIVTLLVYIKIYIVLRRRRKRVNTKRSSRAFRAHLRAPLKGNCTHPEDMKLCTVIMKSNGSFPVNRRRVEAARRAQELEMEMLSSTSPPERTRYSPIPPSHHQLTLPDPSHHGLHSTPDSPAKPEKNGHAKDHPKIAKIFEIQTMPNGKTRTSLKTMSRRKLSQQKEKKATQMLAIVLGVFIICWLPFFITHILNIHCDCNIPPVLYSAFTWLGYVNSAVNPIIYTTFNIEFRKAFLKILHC

[15] = biological target: Delta-type opioid receptor (Homo sapiens) (UniProt P41143); test: Delta2 (h) CEREP screen; settings: Compound concentration 10.0 uM
[16] = biological target: Death-associated protein kinase 3 (Homo sapiens) (UniProt O43293); test: ZIPK Invitrogen kinase panel; settings: Compound concentration 10.0 uM
[17] = biological target: Serine/threonine-protein kinase Chk2 (Homo sapiens) (UniProt O96017); test: CHK2 Invitrogen kinase panel; settings: Compound concentration 10.0 uM
[18] = biological target: T1, Peroxisome proliferator-activated receptor gamma (Homo sapiens) (UniProt P37231); test: PPARgamma Indigo Bioscience nuclear receptor screen
T1 sequence (whole entry): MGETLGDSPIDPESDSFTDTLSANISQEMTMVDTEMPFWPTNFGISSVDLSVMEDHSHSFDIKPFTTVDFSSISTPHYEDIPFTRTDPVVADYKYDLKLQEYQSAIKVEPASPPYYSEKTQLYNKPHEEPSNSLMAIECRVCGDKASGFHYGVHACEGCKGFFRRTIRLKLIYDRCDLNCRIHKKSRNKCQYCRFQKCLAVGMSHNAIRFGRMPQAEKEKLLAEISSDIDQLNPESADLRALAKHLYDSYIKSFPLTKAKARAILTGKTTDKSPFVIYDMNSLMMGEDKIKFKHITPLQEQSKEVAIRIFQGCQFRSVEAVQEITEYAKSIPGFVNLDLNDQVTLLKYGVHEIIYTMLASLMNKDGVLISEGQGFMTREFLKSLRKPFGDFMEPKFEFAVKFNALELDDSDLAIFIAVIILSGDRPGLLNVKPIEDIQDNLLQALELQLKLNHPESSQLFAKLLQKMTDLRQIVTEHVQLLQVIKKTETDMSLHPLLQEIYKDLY

[19] = biological target: T2, PXR (nuclear receptor subfamily 1 group I member 2) (Homo sapiens, UniProt O75469); test: PXR Indigo Bioscience nuclear receptor screen
T2 sequence (O75469 whole entry): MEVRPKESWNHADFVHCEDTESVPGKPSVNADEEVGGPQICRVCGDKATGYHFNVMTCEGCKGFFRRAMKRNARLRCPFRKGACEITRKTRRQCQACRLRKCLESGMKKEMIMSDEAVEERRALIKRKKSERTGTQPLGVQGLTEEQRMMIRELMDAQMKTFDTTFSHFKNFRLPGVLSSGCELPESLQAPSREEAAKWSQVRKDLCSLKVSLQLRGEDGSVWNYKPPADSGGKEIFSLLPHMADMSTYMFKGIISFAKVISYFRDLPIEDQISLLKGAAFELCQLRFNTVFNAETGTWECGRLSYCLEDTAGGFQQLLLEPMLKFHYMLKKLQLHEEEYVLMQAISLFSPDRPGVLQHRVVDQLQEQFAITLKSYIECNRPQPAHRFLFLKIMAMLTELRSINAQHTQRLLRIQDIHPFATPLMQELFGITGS

[20] = biological target: Beta-1 adrenergic receptor (Homo sapiens) (UniProt P08588); settings: Compound concentration 10.0 uM
Chain of Beta-1 adrenergic receptor (Homo sapiens) (P08588 whole entry, looked up): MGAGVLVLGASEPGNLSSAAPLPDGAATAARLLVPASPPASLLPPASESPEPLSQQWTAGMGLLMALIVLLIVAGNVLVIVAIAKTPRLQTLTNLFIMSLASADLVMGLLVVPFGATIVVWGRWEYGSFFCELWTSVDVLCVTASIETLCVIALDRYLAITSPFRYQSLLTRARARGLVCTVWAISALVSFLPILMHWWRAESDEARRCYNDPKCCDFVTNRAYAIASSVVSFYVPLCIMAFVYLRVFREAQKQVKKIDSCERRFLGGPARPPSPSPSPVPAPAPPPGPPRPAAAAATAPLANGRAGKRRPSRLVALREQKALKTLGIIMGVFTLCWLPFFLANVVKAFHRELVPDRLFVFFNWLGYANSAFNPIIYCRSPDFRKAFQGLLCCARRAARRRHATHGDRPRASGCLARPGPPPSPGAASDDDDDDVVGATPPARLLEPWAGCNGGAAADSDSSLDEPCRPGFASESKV

[21] = biological target: Mitogen-activated protein kinase 1 (Homo sapiens) (UniProt P28482); test: ERK2 Invitrogen kinase panel; settings: Compound concentration 10.0 uM
Chain of Mitogen-activated protein kinase 1 (Homo sapiens) (P28482 whole entry): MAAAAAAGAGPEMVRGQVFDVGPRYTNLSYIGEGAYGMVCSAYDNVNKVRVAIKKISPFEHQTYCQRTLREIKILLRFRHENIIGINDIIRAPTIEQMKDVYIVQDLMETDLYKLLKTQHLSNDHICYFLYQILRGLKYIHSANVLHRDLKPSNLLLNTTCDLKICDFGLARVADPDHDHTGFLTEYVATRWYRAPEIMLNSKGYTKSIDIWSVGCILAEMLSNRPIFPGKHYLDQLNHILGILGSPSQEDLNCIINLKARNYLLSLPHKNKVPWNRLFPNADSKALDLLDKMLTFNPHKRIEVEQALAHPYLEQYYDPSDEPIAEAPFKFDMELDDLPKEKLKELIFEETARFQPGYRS

[22] = biological target: Serine/threonine-protein kinase PAK 3 (Homo sapiens) (UniProt O75914); test: PAK3 Invitrogen kinase panel; settings: Compound concentration 10.0 uM
[23] = biological target: Muscarinic acetylcholine receptor M2 (Homo sapiens) (UniProt P08172); settings: Compound concentration 10.0 uM
Chain of Muscarinic acetylcholine receptor M2 (Homo sapiens) (P08172 whole entry): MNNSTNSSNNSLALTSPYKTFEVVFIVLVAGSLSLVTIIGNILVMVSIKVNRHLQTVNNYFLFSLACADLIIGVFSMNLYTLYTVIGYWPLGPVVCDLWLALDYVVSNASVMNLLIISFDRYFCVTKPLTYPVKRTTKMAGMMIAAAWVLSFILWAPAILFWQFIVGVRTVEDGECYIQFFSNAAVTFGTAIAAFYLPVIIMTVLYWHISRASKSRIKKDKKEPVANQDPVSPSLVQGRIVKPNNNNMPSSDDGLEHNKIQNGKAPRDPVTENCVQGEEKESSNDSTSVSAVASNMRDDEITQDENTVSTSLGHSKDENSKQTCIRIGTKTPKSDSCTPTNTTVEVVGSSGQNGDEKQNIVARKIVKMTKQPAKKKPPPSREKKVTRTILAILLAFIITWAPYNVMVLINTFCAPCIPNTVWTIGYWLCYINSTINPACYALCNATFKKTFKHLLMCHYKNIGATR

[24] = biological target: Nuclear receptor ROR-gamma (Homo sapiens) (UniProt P51449)
[25] = biological target: Estrogen receptor beta (Homo sapiens) (UniProt Q92731); test: ERbeta In-house nuclear receptor screen; settings: Compound concentration 3.0 uM
Chain of Estrogen receptor beta (Homo sapiens) (Q92731 whole entry): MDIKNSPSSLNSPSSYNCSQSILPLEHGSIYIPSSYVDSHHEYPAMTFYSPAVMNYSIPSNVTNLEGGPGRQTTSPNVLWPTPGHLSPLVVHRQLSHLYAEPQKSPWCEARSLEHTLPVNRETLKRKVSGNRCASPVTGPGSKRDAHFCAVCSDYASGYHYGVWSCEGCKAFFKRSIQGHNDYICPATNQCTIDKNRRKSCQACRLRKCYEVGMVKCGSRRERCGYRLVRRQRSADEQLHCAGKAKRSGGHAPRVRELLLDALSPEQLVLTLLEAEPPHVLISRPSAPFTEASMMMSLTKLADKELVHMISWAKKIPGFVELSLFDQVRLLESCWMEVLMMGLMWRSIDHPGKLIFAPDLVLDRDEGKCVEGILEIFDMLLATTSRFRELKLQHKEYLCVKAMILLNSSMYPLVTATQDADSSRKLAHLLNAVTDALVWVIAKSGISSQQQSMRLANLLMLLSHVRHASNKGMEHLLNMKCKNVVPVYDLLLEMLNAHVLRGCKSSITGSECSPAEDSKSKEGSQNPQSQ

[26] = biological target: Alpha-2B adrenergic receptor (Homo sapiens, UniProt P18089); test: GPCRScan assay: inhibition of Alpha2B; parameters: radioligand conc. used [nm] 1.5 – 2.0, parental cells HEKT
[27] = biological target: Glycogen synthase kinase-3 alpha (Homo sapiens) (UniProt P49840); test: GSK3alpha Invitrogen kinase panel; settings: Compound concentration 10.0 uM
[28] = biological target: 5-hydroxytryptamine receptor 5A (Homo sapiens) (UniProt P47898); test: 5-HT5A (h) CEREP screen
Chain of 5-hydroxytryptamine receptor 5A (Homo sapiens) (P47898 whole entry): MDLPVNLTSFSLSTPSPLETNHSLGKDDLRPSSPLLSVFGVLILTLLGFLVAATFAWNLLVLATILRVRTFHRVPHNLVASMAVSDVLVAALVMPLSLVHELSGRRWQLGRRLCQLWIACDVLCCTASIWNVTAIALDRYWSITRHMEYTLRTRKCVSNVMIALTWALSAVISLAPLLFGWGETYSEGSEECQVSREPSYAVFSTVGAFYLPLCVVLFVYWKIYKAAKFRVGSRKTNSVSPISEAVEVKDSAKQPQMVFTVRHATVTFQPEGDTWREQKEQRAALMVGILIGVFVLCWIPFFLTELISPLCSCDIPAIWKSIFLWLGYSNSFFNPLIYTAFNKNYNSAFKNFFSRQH

[29] = biological target: Casein kinase II subunit alpha (Homo sapiens) (UniProt P68400); test: CK2alpha1 Invitrogen kinase panel; settings: Compound concentration 10.0 uM
[30] = biological target: Calcium/calmodulin-dependent protein kinase type II subunit alpha (Homo sapiens) (UniProt Q9UQM7); test: CaMKIIalpha Invitrogen kinase panel; settings: Compound concentration 10.0 uM
[31] = biological target: Sodium-dependent dopamine transporter (Homo sapiens) (UniProt Q01959); settings: Compound concentration 10.0 uM
Chain of Sodium-dependent dopamine transporter (Homo sapiens) (Q01959 whole entry): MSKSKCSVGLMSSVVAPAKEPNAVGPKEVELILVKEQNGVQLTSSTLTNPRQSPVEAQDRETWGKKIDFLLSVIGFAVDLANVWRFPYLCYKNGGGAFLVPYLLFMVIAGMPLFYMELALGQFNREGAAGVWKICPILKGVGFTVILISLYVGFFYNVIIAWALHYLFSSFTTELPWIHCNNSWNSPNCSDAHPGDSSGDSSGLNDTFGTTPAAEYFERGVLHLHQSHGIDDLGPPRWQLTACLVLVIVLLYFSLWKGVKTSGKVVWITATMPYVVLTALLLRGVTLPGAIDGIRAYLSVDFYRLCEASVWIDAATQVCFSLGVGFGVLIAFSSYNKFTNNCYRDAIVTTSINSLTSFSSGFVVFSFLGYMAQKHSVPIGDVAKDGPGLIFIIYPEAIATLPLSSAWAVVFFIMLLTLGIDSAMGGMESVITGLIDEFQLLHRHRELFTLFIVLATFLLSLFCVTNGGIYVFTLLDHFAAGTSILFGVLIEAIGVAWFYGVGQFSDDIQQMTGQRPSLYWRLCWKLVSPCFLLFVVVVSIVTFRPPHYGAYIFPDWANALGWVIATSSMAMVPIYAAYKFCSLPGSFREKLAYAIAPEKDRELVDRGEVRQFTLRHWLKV

[32] = biological target: Histamine H1 receptor (Homo sapiens) (UniProt P35367); test: H1 (h) CEREP screen; settings: Compound concentration 1.0 uM
Rattus norvegicus = species: Rattus norvegicus; settings: Compound concentration 10.0 uM
[33] = biological target: Serotonin 3 (5-HT3) receptor (Homo sapiens) (UniProt P46098+A5X5Y0+O95264+Q70Z44+Q8WXA8); test: 5-HT3 (h) CEREP screen; assay type: protein-complex assay; settings: Compound concentration 10.0 uM

Chain of Neuromedin-K receptor (Homo sapiens) (P29371 whole entry): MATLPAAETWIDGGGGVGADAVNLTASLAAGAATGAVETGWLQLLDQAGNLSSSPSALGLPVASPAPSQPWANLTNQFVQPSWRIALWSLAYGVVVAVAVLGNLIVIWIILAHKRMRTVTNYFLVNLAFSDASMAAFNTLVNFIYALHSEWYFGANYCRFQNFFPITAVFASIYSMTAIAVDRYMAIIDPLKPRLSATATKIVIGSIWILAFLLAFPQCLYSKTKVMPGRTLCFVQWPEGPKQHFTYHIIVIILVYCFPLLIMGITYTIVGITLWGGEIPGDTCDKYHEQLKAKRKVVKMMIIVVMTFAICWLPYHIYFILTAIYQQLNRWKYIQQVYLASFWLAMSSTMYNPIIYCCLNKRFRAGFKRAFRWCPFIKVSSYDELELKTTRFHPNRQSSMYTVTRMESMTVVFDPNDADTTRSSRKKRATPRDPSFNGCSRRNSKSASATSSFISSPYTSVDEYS

COc1nc2ccc([C@@](O)(c3ccccc3)C3CCN(C(C)=O)CC3)cc2c(Cl)c1Cc1ccc(-n2cccn2)cc1 [JNJ-54119936]
inhibition [1]: 1% | inhibition ([2]; Compound concentration 1.0 uM): 18% | inhibition ([2]; Compound concentration 10.0 uM): 22% | inhibition [3]: 102% | inhibition [4]: 12% | inhibition [5]: 21.2% | inhibition [6]: 4% | inhibition [7]: 31% | inhibition [8]: 6% | inhibition [9]: 13% | inhibition [10]: 3% | inhibition [11]: 4% | inhibition [12]: 20% | inhibition [13]: 6% | inhibition [14]: 12.5% | inhibition [15]: 11% | inhibition [16]: 10% | inhibition [17]: 6% | inhibition ([18]; Compound concentration 0.3 uM): -0.894% | inhibition ([18]; Compound concentration 3.0 uM): -6.01% | inhibition at 0.3 µM ([19]; compound concentration 0.3 uM): -7.63% (not active) | inhibition at 1 µM ([19]; compound concentration 1 uM): -26.4% (not active) | inhibition at 3 µM ([19]; compound concentration 3 uM): 1.01% (not active) | inhibition [20]: 15.2% | inhibition [21]: 13% | inhibition [22]: 6% | inhibition [23]: 1.16% | qKD [24]: 5.3 nM | inhibition [25]: 31.2% | Ki [26]: 9.22 µM | inhibition [27]: -4% | inhibition ([28]; Compound concentration 1.0 uM): 13% | inhibition ([28]; Compound concentration 10.0 uM): 23% | inhibition [29]: 2% | inhibition [30]: 14% | inhibition [31]: 21% | inhibition [32]: 10% | inhibition (Rattus norvegicus): 35.6% | inhibition [33]: 18%
